The text below walks through data of patent publication US20200199501A1, “SOLVENT COMPOSITIONS CONTAINING 1,2,2-TRIFLUORO-1-TRIFLUOROMETHYLCYCLOBUTANE (TFMCB)” (Honeywell International Inc., priority 2018, published 2020).

SMILES strings stand for the structures.

The series in a line: Acute inhalation toxicity (OECD Guideline No. 403). The following applies: in vivo, inhaled, OECD Guideline No. 403 (2009), Method B.2 of Commission Regulation (EC) No. 440/2008. From the text:
LC50 is a measure of the acute toxicity of a compound. The acute inhalation toxicity of a compound can be assessed using the method described in the OECD Guideline for Testing of Chemicals No. 403 “Acute Inhalation Toxicity” (2009), Method B.2. (Inhalation) of Commission Regulation (EC) No. 440/2008.

Compound `FC(F)(F)C1(F)CCC1(F)F` (stereo not shown) [TFMCB, 1,2,2-trifluoro-1-trifluoromethylcyclobutane] registered an LC50 of more than 19.1 µg/mL.

The term LC50 denotes the concentration lethal to half of the exposed cells or organisms. Low readings indicate greater toxicity, high ones lower toxicity.
